Assay results as given in patent publication US6737383B1, “Herbicidal oxadiazolidines” (priority 1999, dated 2004).

Experiments:
[1] = tested on: bedstraw; assay: Test B pre/postemergence bedstraw; format: in vivo, Galium aparine
In short: (§1)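 Response is a visual 0-to-10 score relative to untreated plants, where 0 means no effect and 10 means complete control, taken twelve to sixteen days after application. Treatments went onto soil at planting and onto foliage of 1- to 4-leaf plants, using a surfactant-containing non-phytotoxic solvent.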

[2] = tested on: surinam grass; assay: Test B pre/postemergence surinam grass; format: in vivo, Brachiaria decumbens
In short: as §1

[3] = tested on: cocklebur; assay: Test B pre/postemergence cocklebur; format: in vivo, Xanthium strumarium
In short: as §1

[4] = tested on: corn; assay: Test B pre/postemergence corn; format: in vivo, Zea mays
In short: as §1

[5] = tested on: crabgrass; assay: Test B pre/postemergence crabgrass; format: in vivo, Digitaria sanguinalis
In short: as §1

[6] = tested on: giant foxtail; assay: Test B pre/postemergence giant foxtail; format: in vivo, Setaria faberii
In short: as §1

[7] = tested on: morningglory; assay: Test B pre/postemergence morningglory; format: in vivo, Ipomoea hederacea
In short: as §1

[8] = tested on: pigweed; assay: Test B pre/postemergence pigweed; format: in vivo, Amaranthus retroflexus
In short: as §1

[9] = tested on: rape; assay: Test B pre/postemergence rape; format: in vivo, Brassica napus
In short: as §1

[10] = tested on: soybean; assay: Test B pre/postemergence soybean; format: in vivo, Glycine max
In short: as §1

[11] = tested on: sugar beet; assay: Test B pre/postemergence sugar beet; format: in vivo, Beta vulgaris; details: for Plant response rating, Sugarbeets: Rate 250 g/ha
In short: as §1

[12] = tested on: velvetleaf; assay: Test B pre/postemergence velvetleaf; format: in vivo, Abutilon theophrasti; details: for Plant response rating, Velvetleaf: Rate 250 g/ha
In short: as §1

[13] = tested on: wheat; assay: Test B pre/postemergence wheat; format: in vivo, Triticum aestivum; details: for Plant response rating, Wheat: Rate 250 g/ha
In short: as §1

[14] = tested on: purple nutsedge; assay: Test B pre/postemergence purple nutsedge; format: in vivo, Cyperus rotundus
In short: as §1

[15] = tested on: duck salad; assay: Test B flood test duck salad; format: in vivo, Heteranthera limosa
In short: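 Read-out is a visual response score from 0 (no effect) to 10 (complete control), assigned by comparison with untreated controls. Treatment was applied at the 2-leaf stage, and plants stayed in the greenhouse for twelve to sixteen days before scoring.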

[16] = Postemergence, Rate 62 g/ha, scale 0 to 10, 0 is no effect, 10 is complete control
[17] = Postemergence, Rate 250 g/ha, scale 0 to 10, 0 no effect, 10 complete control
[18] = Preemergence, Rate 62 g/ha, scale 0 to 10 (0 no effect, 10 complete control)
[19] = Preemergence, Rate 125 g/ha, scale 0 to 10 (0 no effect, 10 complete control)
[20] = Preemergence, Rate 250 g/ha, scale of 0 to 10 where 0 is no effect and 10 is complete control
[21] = Preemergence, Rate 500 g/ha, scale 0 to 10 (0 no effect, 10 complete control)
[22] = Rate 125 g/ha, Postemergence, scale 0 to 10, 0 no effect, 10 complete control
[23] = Postemergence, Rate 125 g/ha, scale of 0 to 10 where 0 is no effect and 10 is complete control
[24] = Rate 62 g/ha, Postemergence, scale of 0 to 10 where 0 is no effect and 10 is complete control
[25] = Rate 500 g/ha, Postemergence, scale 0 to 10, 0 no effect, 10 complete control
[26] = Rate 250 g/ha, Postemergence, scale 0 to 10, 0 is no effect, 10 is complete control
[27] = Preemergence, Rate 125 g/ha, 0 is no effect, 10 is complete control
[28] = Preemergence, scale of 0 to 10 where 0 is no effect and 10 is complete control
[29] = Postemergence, scale 0 to 10, 0 is no effect, 10 is complete control

`CC(C)N(C(=O)n1oc(=O)n(C2CCCCC2)c1=O)c1ccc(F)cc1F` [Compound 115] was tested, and the “Bedstraw plant response rating” value [1, 16] was 0, the “Bedstraw plant response rating” value [1, 17] was 4 and the “Bedstraw plant response rating” value [1, 18] was 0. The “Plant response rating, Bedstraw” value [1, 19] was 0, the “Plant response rating, Bedstraw” value [1, 20] was 0 and the “Bedstraw plant response rating” value [1, 21] was 0. The “Bedstraw plant response rating” value [1, 22] was 0, the “B. signalgrass plant response rating” value [2, 16] was 0 and the “B. signalgrass plant response rating” value [2, 17] was 0. The “B. signalgrass plant response rating” value [2, 18] was 2, the “Plant response rating, B. signalgrass” value [2, 19] was 2 and the “Plant response rating, B. signalgrass” value [2, 20] was 4. For the same compound, the “B. signalgrass plant response rating” value [2, 21] was 10, the “B. signalgrass plant response rating” value [2, 22] was 0 and the “B. signalgrass plant response rating” value ([2]; Rate 500 g/ha, Postemergence, scale of 0 to 10 where 0 is no effect and 10 is complete control) was 8. The “Cocklebur plant response rating” value [3, 23] was 0, the “Cocklebur plant response rating” value [3, 17] was 1 and the “Cocklebur plant response rating” value [3, 18] was 0. The “Plant response rating, Cocklebur” value [3, 19] was 0, the “Plant response rating, Cocklebur” value [3, 20] was 0 and the “Cocklebur plant response rating” value [3, 21] was 0. The “Cocklebur plant response rating” value [3, 24] was 0, the “Cocklebur plant response rating” value [3, 25] was 2 and the “Corn plant response rating” value [4, 23] was 0. The “Corn plant response rating” value [4, 17] was 0, the “Corn plant response rating” value [4, 18] was 0 and the “Plant response rating, Corn” value [4, 19] was 0. The “Plant response rating, Corn” value [4, 20] was 0, the “Corn plant response rating” value [4, 21] was 0 and the “Corn plant response rating” value [4, 24] was 0. The “Corn plant response rating” value [4, 25] was 0, the “Crabgrass plant response rating” value [5, 23] was 0 and the “Crabgrass plant response rating” value [5, 17] was 2. The “Crabgrass plant response rating” value [5, 18] was 4, the “Plant response rating, Crabgrass” value [5, 19] was 4 and the “Plant response rating, Crabgrass” value [5, 20] was 7. The “Crabgrass plant response rating” value [5, 21] was 9, the “Crabgrass plant response rating” value [5, 24] was 0 and the “Crabgrass plant response rating” value [5, 25] was 6. For the same compound, the “Giant foxtail plant response rating” value [6, 23] was 4, the “Giant foxtail plant response rating” value [6, 17] was 5 and the “Giant foxtail plant response rating” value [6, 18] was 9. The “Plant response rating, Giant foxtail” value [6, 19] was 9, the “Plant response rating, Giant foxtail” value [6, 20] was 9 and the “Giant foxtail plant response rating” value [6, 21] was 10. For the same compound, the “Giant foxtail plant response rating” value [6, 24] was 0, the “Giant foxtail plant response rating” value [6, 25] was 9 and the “Morningglory plant response rating” value [7, 23] was 3. The “Morningglory plant response rating” value [7, 17] was 6, the “Morningglory plant response rating” value [7, 18] was 0 and the “Plant response rating, Morningglory” value [7, 19] was 0. The “Plant response rating, Morningglory” value [7, 20] was 0, the “Morningglory plant response rating” value [7, 21] was 0 and the “Morningglory plant response rating” value [7, 24] was 3. The “Morningglory plant response rating” value [7, 25] was 6, the “Redroot pigweed plant response rating” value [8, 23] was 0 and the “Redroot pigweed plant response rating” value [8, 18] was 5. The “Plant response rating, Redroot pigweed” value [8, 19] was 5, the “Plant response rating, Redroot pigweed” value [8, 20] was 6 and the “Redroot pigweed plant response rating” value [8, 21] was 8. For the same compound, the “Redroot pigweed plant response rating” value [8, 24] was 0, the “Plant response rating, Redroot pigweed” value [8, 26] was 0 and the “Redroot pigweed plant response rating” value [8, 25] was 4. For the same compound, the “Rape plant response rating” value [9, 23] was 0, the “Rape plant response rating” value [9, 17] was 0 and the “Rape plant response rating” value [9, 18] was 0. For the same compound, the “Plant response rating, Rape” value [9, 19] was 0, the “Plant response rating, Rape” value [9, 20] was 0 and the “Rape plant response rating” value [9, 21] was 5. The “Rape plant response rating” value [9, 24] was 0, the “Rape plant response rating” value [9, 25] was 0 and the “Soybean plant response rating” value [10, 23] was 1. For the same compound, the “Soybean plant response rating” value [10, 18] was 0, the “Plant response rating, Soybean” value [10, 19] was 0 and the “Plant response rating, Soybean” value [10, 20] was 0. The “Soybean plant response rating” value [10, 21] was 0, the “Soybean plant response rating” value [10, 24] was 1 and the “Plant response rating, Soybean” value [10, 26] was 4. For the same compound, the “Soybean plant response rating” value [10, 25] was 4, the “Sugarbeets plant response rating” value [11, 23] was 3 and the “Sugarbeets plant response rating” value [11, 18] was 0. For the same compound, the “Sugarbeets plant response rating (0 to 10 scale)” value [11, 27] was 0, the “Plant response rating, Sugarbeets” value [11, 28] was 0 and the “Sugarbeets plant response rating” value [11, 21] was 5. For the same compound, the “Sugarbeets plant response rating” value [11, 24] was 2, the “Plant response rating, Sugarbeets” value [11, 29] was 3 and the “Sugarbeets plant response rating” value [11, 25] was 3. The “Velvetleaf plant response rating” value [12, 23] was 0, the “Velvetleaf plant response rating” value [12, 18] was 0 and the “Velvetleaf plant response rating (0 to 10 scale)” value [12, 27] was 0. For the same compound, the “Plant response rating, Velvetleaf” value [12, 28] was 2, the “Velvetleaf plant response rating” value [12, 21] was 2 and the “Velvetleaf plant response rating” value [12, 24] was 0. For the same compound, the “Plant response rating, Velvetleaf” value [12, 29] was 0, the “Velvetleaf plant response rating” value [12, 25] was 0 and the “Wheat plant response rating” value [13, 23] was 0. For the same compound, the “Wheat plant response rating” value [13, 18] was 0, the “Wheat plant response rating (0 to 10 scale)” value [13, 27] was 0 and the “Plant response rating, Wheat” value [13, 28] was 0. The “Wheat plant response rating” value [13, 21] was 0, the “Wheat plant response rating” value [13, 24] was 0 and the “Plant response rating, Wheat” value [13, 29] was 0. The “Wheat plant response rating” value [13, 25] was 0, the “Nutsedge plant response rating” value [14, 23] was 0 and the “Nutsedge plant response rating” value [14, 17] was 0. For the same compound, the “Nutsedge plant response rating” value [14, 18] was 0, the “Plant response rating, Nutsedge” value [14, 19] was 0 and the “Plant response rating, Nutsedge” value [14, 20] was 0. The “Nutsedge plant response rating” value [14, 21] was 0, the “Nutsedge plant response rating” value [14, 24] was 0 and the “Nutsedge plant response rating” value [14, 25] was 0. The “Ducksalad plant response rating” value ([15]; Postemergence (flood test species), Rate 125 g/ha, scale of 0 to 10 where 0 is no effect and 10 is complete control) was 0, the “Ducksalad plant response rating” value ([15]; Rate 62 g/ha, Postemergence section, flood test species, scale of 0 to 10 where 0 is no effect and 10 is complete control) was 0 and the “Ducksalad plant response rating” value ([15]; Rate 500 g/ha, listed under Postemergence (flood test species), scale 0 to 10, 0 no effect, 10 complete control) was 0. The “Ducksalad plant response rating” value ([15]; flood test, listed under Postemergence, Rate 250 g/ha, scale 0 to 10, 0 no effect, 10 complete control) was 0.
